Data from patent publication US20180256560A1 (priority 2015, published 2018).
Values joined by “and” are separate entries in the source; they are usually repeats but may differ in a detail not shown here. Identical values can stand only once. Like-named read-outs stand apart in the source and are kept apart here.

Columns and labels:
[1] = cited from earlier work
[2] = not given; remark: listed apart in the source
[3] = 20 mg/ml nicotine in the formulation; FIGS. 4.4-4.6
Description: Test solutions were prepared from ethanol, de-ionized water, a 20% stock solution of glycerol in de-ionized water, a 5 M NaCl solution and nicotine solutions of 40 mg/ml in either ethanol or de-ionized water. Solutions were analysed for droplet size distributions generated by an eFlow© rapid nebulizer device (PARI GmbH) which was placed at 90° to, and 15 cm from, the laser light path of a Malvern Spraytec particle sizer. A Malvern Spraytec Real Time Droplet Sizer and an Alberta Idealized Throat coupled to an Andersen Cascade Impactor (AIT/ACI) were also used to determine droplet size.
The surface to volume ratio of the droplets was calculated using the following formulae:

[4] = not given; remark: listed apart in the source

## CN1CCC[C@H]1c1cccnc1 [nicotine, (S)-3-(1-Methyl-2-pyrrolidinyl)pyridine]
1M NaCl
  enhancement of gaseous release of nicotine from the solution by salt: two-fold
10% ethanol, FIG. 3.4
  reduction of nicotine gas release by ethanol (dynamic): 90%
Decreasing pH from 8 to 3, FIG. 3.2
  effect of pH on nicotine gas release (dynamic): dramatically decreases
Increasing NaCl from 0 to 1M, FIG. 3.3
  effect of NaCl on nicotine release in gas form (dynamic): dramatically increases
[1]; 25% of the average 1 mg of nicotine delivered by a cigarette
  nicotine in 5 litres of arterial blood: 30 to 60 ng/mL
[1]; smokers, typical
  time to peak nicotine concentration in arterial blood: 3 to 5 min
[2]; pH 7
  nicotine molecules uncharged: approximately 10%
[2]; pH 10
  nicotine molecules uncharged: > 99% and ~100%
[3]
  effect of adding nicotine on droplet size: no major shift in droplet size
[4]; 20 mg/ml nicotine, 1% ethanol, FIG. 2.3
  reduction of nicotine in gas form at equilibrium by ethanol: 90%
[4]; decreasing pH from 10 to 3, FIG. 2.2
  effect of pH on amount of nicotine in gas form at equilibrium: dramatically decreases
[4]; higher salt concentrations
  effect of metal salt on amount of gaseous nicotine at equilibrium: larger amounts of gaseous nicotine
